Data from patent US10023484B2, “Use of peracetic acid/hydrogen peroxide and peroxide-reducing agents for treatment of drilling fluids, frac fluids, flowback water and disposal water” (Ecolab USA Inc., priority 2012, dated 2018).

Key:
fracking water mixtures [1] = assay: Micro efficacy baseline in fracking water mixtures without catalase (Example 3); type: cell-based
Method: The impact of water pretreatment with 500 ppm of the EnviroSan product (75 ppm POAA) on micro efficacy in various fracking water mixtures were evaluated. The example represents a baseline data set of various water treatment options according to the invention. Table 2 and FIG. 3 show the average log reduction in various slick water treatments with varying ppm PAA (without any catalase treatment or pretreatment), representing a baseline data set.

[2] = Titration of POAA consumption in water mixtures (Example 6); type: physicochemical; details: 1 minute
fracking water mixtures [3] = assay: Micro efficacy: POAA dosed for 30 ppm residual versus POAA pretreated with catalase (Example 8); type: cell-based
Method: A micro efficacy comparison of POAA added at levels to target 30 ppm POAA residuals at 5 minutes versus POAA pretreated with catalase was conducted as set forth in Table 12.

[4] = tested on: Pseudomonas aeruginosa ATCC 15442; assay: Micro efficacy at 30 ppm POAA EnviroSan with/without catalase, with/without water pretreatment (Example 7); type: cell-based; details: no pretreatment, 30 ppm PAA
Method: Additional micro efficacy performance was evaluated to confirm the improved micro efficacy observed in Example 6 when using increasing amounts of produced water with the dosing static initial concentrations of POAA (30 ppm or 40 ppm) with catalase. Improved micro efficacy with increased amounts of produced water present in a mixture is a highly counterintuitive result and was unexpected. Under normal conditions, it would be expected to have decreased micro efficacy as the amount of produced water (e.g. recycled) increases and the amount of POAA remains static as a result of the increased contamination found in produced water as opposed to fresh water sources. As a result, subsequent evaluation observed the activity of the water itself against a spiked culture of P. aeruginosa over a 1 hour exposure period to determine whether the produced water itself has an antimicrobial present.
All water mixtures were treated with an initial concentration of 30 ppm POAA EnviroSan, both with and without the addition of catalase. The data set evaluates whether there is a significant difference in micro activity generated between treatments of EnviroSan alone vs. EnviroSan pre-reduced with catalase.
All ratios of fracking water mixtures tested (100/0, 90/10, 80/20 & 70/30) were freshly mixed solutions, as well as solutions mixed and pretreated with 500 ppm EnviroSan product more than 1 hour before the start of the micro evaluation, in order to observe if a pretreatment step is of value for micro performance compared to those mixtures not pretreated. The test system (P. aeruginosa and natural water) described in Example 5 was again utilized. Water mixtures as outlined in Table 9 were provided (showing the percentage of 100 mL of each water sample type).
The testing methods of Example 5 were utilized for the chemically treated water samples, differing only in the combination of the 10 mL inoculated water mixtures with appropriate volumes of the EnviroSan with or without catalase to achieve 30 ppm POAA residual to each test tube in timed intervals and mixed. The methods of Example 5 were employed to make the EnviroSan with catalase stock solutions. In comparison, for the water samples that were not chemically treated, 9.9 mL of test water mixture was dispensed into 2 individual test tubes. 0.10 mL of an approximate 10^8 CFU/mL culture of P. aeruginosa was added in timed intervals and mixed thoroughly. Then 1 mL samples were neutralized in 9 mL of 0.5% sodium thiosulfate, followed by serial dilution and enumeration after 2.5 minutes, 5 minutes and 60 minute exposure times.
In addition, data for enumeration of water samples for antimicrobial activity against P. aeruginosa over 60 minutes exposure are also summarized in Table 10.

[5] = Effect of catalase and treatment sequence on peracid stability in 80/20 water blends (Example 10); type: physicochemical; details: theoretical initial POAA 82 ppm
From the text: The effect of catalase on the peracid stability within treated waters was further evaluated. Water blends of 80/20 (80% fresh water/20% produced water) were employed to analyze the impact on various treatment sequences set forth in Table 14.
Due to the efficacious results shown in FIG. 15, the same methods were used to further evaluate a pretreatment using a lower concentration of the catalase as shown in Table 15.

[6] = Pretreated, catalase CA 400 5.8 ppm
[7] = Simult. Add, catalase CA 400 10 ppm
[8] = Simult. Add, catalase CA 400 100 ppm

CC(=O)OO [POAA, peracetic acid]
Avg. Log10 Reduction (fracking water mixtures [1]; 75 ppm PAA pretreatment, 10% reuse H2O, 29 ppm POAA, NO catalase, 2.5 minutes): 6.45
Avg. Log10 Reduction (fracking water mixtures [1]; 75 ppm PAA pretreatment, 10% reuse H2O, 29 ppm POAA, NO catalase, 5 minutes): 6.71
Avg. Log10 Reduction (fracking water mixtures [1]; 75 ppm PAA pretreatment, 20% reuse H2O, 47 ppm PAA, NO catalase, 2.5 minutes): 6.42
Avg. Log10 Reduction (fracking water mixtures [1]; 75 ppm PAA pretreatment, 20% reuse H2O, 47 ppm PAA, NO catalase, 5 minutes): 6.55
Avg. Log10 Reduction (fracking water mixtures [1]; 75 ppm PAA pretreatment, 30% reuse H2O, 86 ppm POAA, NO catalase, 2.5 minutes): 6.47
Avg. Log10 Reduction (fracking water mixtures [1]; 75 ppm PAA pretreatment, 30% reuse H2O, 86 ppm POAA, NO catalase, 5 minutes): 6.41
Avg. Log10 Reduction (fracking water mixtures [1]; no holding tank pretreatment, 0% reuse H2O, 22 ppm POAA, 2.5 minutes): 5.53
Avg. Log10 Reduction (fracking water mixtures [1]; no holding tank pretreatment, 0% reuse H2O, 22 ppm POAA, 5 minutes): 5.75
Avg. Log10 Reduction (fracking water mixtures [1]; no pretreatment, 10% reuse H2O, 36 ppm POAA, 2.5 minutes): 4.32
Avg. Log10 Reduction (fracking water mixtures [1]; no pretreatment, 10% reuse H2O, 36 ppm POAA, 5 minutes): 4.72
Avg. Log10 Reduction (fracking water mixtures [1]; no pretreatment, 20% reuse H2O, 86 ppm POAA, 2.5 minutes): 4.57
Avg. Log10 Reduction (fracking water mixtures [1]; no pretreatment, 20% reuse H2O, 86 ppm POAA, 5 minutes): 4.64
Avg. Log10 Reduction (fracking water mixtures [1]; no pretreatment, 30% reuse H2O, 138 ppm POAA, 2.5 minutes): 4.12
Avg. Log10 Reduction (fracking water mixtures [1]; no pretreatment, 30% reuse H2O, 138 ppm POAA, 5 minutes): 5.00
Actual Titrated Concentration (ppm POAA) ([2]; 70% Fresh/30% Produced, desired 30 ppm POAA): 7 ppm
Actual Titrated Concentration (ppm POAA) ([2]; 70% Fresh/30% Produced, desired 40 ppm POAA): 12 ppm
Actual Titrated Concentration (ppm POAA) ([2]; 80% Fresh/20% Produced, desired 30 ppm POAA): 13 ppm
Actual Titrated Concentration (ppm POAA) ([2]; 80% Fresh/20% Produced, desired 40 ppm POAA): 21 ppm
Actual Titrated Concentration (ppm POAA) ([2]; 90% Fresh/10% Produced, desired 30 ppm POAA): 21 ppm
Actual Titrated Concentration (ppm POAA) ([2]; 90% Fresh/10% Produced, desired 40 ppm POAA): 30 ppm
Avg. Log10 Reduction (fracking water mixtures [3]; 10% reuse H2O, 30 ppm PAA, Catalase, 2.5 minutes): 5.29
Avg. Log10 Reduction (fracking water mixtures [3]; 10% reuse H2O, 30 ppm PAA, Catalase, 5 minutes): 5.96
Avg. Log10 Reduction (fracking water mixtures [3]; 10% reuse H2O, 46 ppm PAA, NO Catalase, 2.5 minutes): 4.32
Avg. Log10 Reduction (fracking water mixtures [3]; 10% reuse H2O, 46 ppm PAA, NO Catalase, 5 minutes): 4.72
Avg. Log10 Reduction (fracking water mixtures [3]; 20% reuse H2O, 30 ppm PAA, Catalase, 2.5 minutes): 5.73
Avg. Log10 Reduction (fracking water mixtures [3]; 20% reuse H2O, 30 ppm PAA, Catalase, 5 minutes): 6.36
Avg. Log10 Reduction (fracking water mixtures [3]; 20% reuse H2O, 86 ppm PAA, NO Catalase, 2.5 minutes): 4.57
Avg. Log10 Reduction (fracking water mixtures [3]; 20% reuse H2O, 86 ppm PAA, NO Catalase, 5 minutes): 4.64
Avg. Log10 Reduction (fracking water mixtures [3]; 30% reuse H2O, 30 ppm PAA, Catalase, 2.5 minutes): 5.30
Avg. Log10 Reduction (fracking water mixtures [3]; 30% reuse H2O, 30 ppm PAA, Catalase, 5 minutes): 5.98
Avg. Log10 Reduction (fracking water mixtures [3]; 30% reuse H2O, 138 ppm PAA, NO Catalase, 2.5 minutes): 4.12
Avg. Log10 Reduction (fracking water mixtures [3]; 30% reuse H2O, 138 ppm PAA, NO Catalase, 5 minutes): 5.00
Avg. Log10 Reduction ([4]; 0% reuse H2O, Catalase, 2.5 minutes): 4.62
Avg. Log10 Reduction ([4]; 0% reuse H2O, Catalase, 5 minutes): 6.22
Avg. Log10 Reduction ([4]; 0% reuse H2O, NO Catalase, 2.5 minutes): 4.64
Avg. Log10 Reduction ([4]; 0% reuse H2O, NO Catalase, 5 minutes): 6.32
Avg. Log10 Reduction ([4]; 10% reuse H2O, Catalase, 2.5 minutes): 5.29
Avg. Log10 Reduction ([4]; 10% reuse H2O, Catalase, 5 minutes): 5.96
Avg. Log10 Reduction ([4]; 10% reuse H2O, NO Catalase, 2.5 minutes): 3.09
Avg. Log10 Reduction ([4]; 10% reuse H2O, NO Catalase, 5 minutes): 3.91
Avg. Log10 Reduction ([4]; 20% reuse H2O, Catalase, 2.5 minutes): 5.73
Avg. Log10 Reduction ([4]; 20% reuse H2O, Catalase, 5 minutes): 6.36
Avg. Log10 Reduction ([4]; 20% reuse H2O, NO Catalase, 2.5 minutes): 2.19
Avg. Log10 Reduction ([4]; 20% reuse H2O, NO Catalase, 5 minutes): 2.38
Avg. Log10 Reduction ([4]; 30% reuse H2O, Catalase, 2.5 minutes): 5.30
Avg. Log10 Reduction ([4]; 30% reuse H2O, Catalase, 5 minutes): 5.98
Avg. Log10 Reduction ([4]; 30% reuse H2O, NO Catalase, 2.5 minutes): 1.88
Avg. Log10 Reduction ([4]; 30% reuse H2O, NO Catalase, 5 minutes): 1.93
POAA Meas'd. at 1 min. ([5]; NA, catalase 0 ppm): 56 ppm
POAA Meas'd. at 4 min. ([5]; NA, catalase 0 ppm): 31 ppm
POAA Meas'd. at 5 min. ([5]; NA, catalase 0 ppm): 23 ppm
POAA Meas'd. at 6 min. ([5]; NA, catalase 0 ppm): 17 ppm
POAA Meas'd. at 1 min. [5, 6]: 76 ppm
POAA Meas'd. at 4 min. [5, 6]: 75 ppm
POAA Meas'd. at 5 min. [5, 6]: 75 ppm
POAA Meas'd. at 6 min. [5, 6]: 75 ppm
POAA Meas'd. at 1 min. [5, 7]: 63 ppm
POAA Meas'd. at 4 min. [5, 7]: 34 ppm
POAA Meas'd. at 5 min. [5, 7]: 31 ppm
POAA Meas'd. at 6 min. [5, 7]: 26 ppm
POAA Meas'd. at 1 min. [5, 8]: 66 ppm
POAA Meas'd. at 4 min. [5, 8]: 61 ppm
POAA Meas'd. at 5 min. [5, 8]: 65 ppm
POAA Meas'd. at 6 min. [5, 8]: 58 ppm
